Test results taken from patent US4806540A, “1-heteroaryl-4-aryl-pyrazole microbicides” (Bayer Aktiengesellschaft, priority 1985, dated 1989).
Converted amounts (≈) assume the structure as drawn.

Experiments:
Pyricularia oryzae = assay type: in vivo, Pyricularia oryzae (on young rice plants); conditions: protective, rice plants; evaluation 4 days after inoculation
[1] = tested on: fungi: Alternaria tenuis, Aspergillus niger, Aureobasidium pullulans, Chaetomium globosum, Cladosporium cladoporioides, Lentinus tigrinus, Penicillium glaucum …; test: Minimum inhibitory concentrations (MIC), activity against fungi (agar); assay type: cell-based; conditions: agar from beer wort and peptone; 28° C., 60 to 70% humidity, 2 weeks; 0.1 mg/l to 5,000 mg/l
Description: Active compounds according to the invention are added in concentrations of 0.1 mg/l to 5,000 mg/l to an agar prepared from beer wort and peptone. After storage at 28° C. and 60 to 70% relative atmospheric humidity for 2 weeks, the MIC is determined. […] Good actions of the listed test organisms are shown, for example, by the compounds according to Preparation Examples 2, 6a, 12a, 9b, 24 and 25: […]

Escherichia coli = test: Action against bacteria, MIC (agar); assay type: cell-based; conditions: 336 h, agar containing broth, 28° C., 2 weeks
Description: (§1) The nutrient medium is then infected with in each case the test organisms listed in Table C and the infected medium is kept at 28° C. and 60 to 70% relative atmospheric humidity for 2 weeks. […] The compounds according to Preparation Examples 2, 6a, 12a, 9b, 13 and 14 show good actions.

Staphylococcus aureus = test: Action against bacteria, MIC (agar); assay type: cell-based; conditions: 336 h, agar containing broth, 28° C., 2 weeks
Description: as §1

bacteria = test: Action against bacteria (test organisms of Table C), result in words; assay type: cell-based, Escherichia coli, Staphylococcus aureus; conditions: 1 to 5,000 ppm; agar containing broth, 28° C., 2 weeks
Description: as §1

CC(=O)n1cc(-c2ccccc2)c(=O)n1-c1ncccn1 [Example 2, 1-Pyrimid-2-yl-2-acetyl-4-phenyl-pyrazol-5-one]
activity compared with the prior art (Pyricularia oryzae): clearly superior activity compared with the prior art
action against the listed test organisms (fungi) [1]: Good actions
MIC (Escherichia coli): 750 µg/mL (≈ 2680 µM)
MIC (Staphylococcus aureus): 1000 µg/mL (≈ 3570 µM)
action against bacteria (bacteria): good actions

CS(=O)(=O)n1cc(-c2ccccc2)c(=O)n1-c1ccccn1 [Example 24, 1-pyrid-2-yl-2-methylsulphonyl-4-phenyl-pyrazolin-5-one]
MIC (Escherichia coli): 50 µg/mL (≈ 159 µM)
MIC (Staphylococcus aureus): 50 µg/mL (≈ 159 µM)

O=c1c(-c2ccccc2)cn(S(=O)(=O)c2ccccc2)n1-c1ccccn1 [Example 25]
action against the listed test organisms (fungi) [1]: Good actions
MIC (Escherichia coli): 1000 µg/mL (≈ 2650 µM)
MIC (Staphylococcus aureus): 20 µg/mL (≈ 53 µM)

mixture of 1-pyrid-2-yl-2-acetyl-4-phenyl-pyrazolin-5-one and 1-pyrid-2-yl-4-phenyl-5-acetoxypyrazole [Example 1]
activity compared with the prior art (Pyricularia oryzae): clearly superior activity compared with the prior art
